From patent US8362050B2, “Compounds and methods for modulating G protein-coupled receptors” (IRM LLC, priority 2008, dated 2013) come the findings set out here.

This assay concerns the target T1, Human GPR120 (Homo sapiens, UniProt Q5NUL3).
T1 construct: Ga16 (promiscuous G protein) fusion partner; expressed in transfected cells
T1 sequence (Q5NUL3 with tags, fused parts or gaps): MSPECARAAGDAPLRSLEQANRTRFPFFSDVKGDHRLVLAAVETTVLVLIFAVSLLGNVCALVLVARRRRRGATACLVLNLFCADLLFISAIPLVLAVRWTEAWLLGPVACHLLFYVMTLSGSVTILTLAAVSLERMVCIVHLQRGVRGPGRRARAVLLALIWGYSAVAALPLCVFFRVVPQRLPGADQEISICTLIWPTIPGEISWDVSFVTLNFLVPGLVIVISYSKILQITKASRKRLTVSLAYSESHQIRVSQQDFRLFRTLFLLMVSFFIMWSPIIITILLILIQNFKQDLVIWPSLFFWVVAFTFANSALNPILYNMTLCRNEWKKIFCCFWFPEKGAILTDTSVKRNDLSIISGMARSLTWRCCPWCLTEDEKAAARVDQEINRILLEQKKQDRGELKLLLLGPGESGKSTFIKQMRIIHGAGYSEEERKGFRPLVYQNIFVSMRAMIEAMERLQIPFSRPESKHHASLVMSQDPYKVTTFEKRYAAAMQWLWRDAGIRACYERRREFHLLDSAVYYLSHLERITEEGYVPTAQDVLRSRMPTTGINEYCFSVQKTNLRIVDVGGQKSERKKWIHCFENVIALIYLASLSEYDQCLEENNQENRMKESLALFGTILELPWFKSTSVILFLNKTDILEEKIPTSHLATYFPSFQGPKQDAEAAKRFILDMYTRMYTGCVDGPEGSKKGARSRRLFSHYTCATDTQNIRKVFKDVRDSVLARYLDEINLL
The assay is described as follows: FLIPR assay: agonist-induced calcium mobilization in HEK293-GPR120-Ga16 cells. Format: cell-based. The note with it: for Emax: % enhancement of the test compound relative to a known compound, read-out: % Efficiency; for EC50: GPR120 activation, calcium mobilization, HEK293-GPR120-Ga16 cells. How it is done:
Human GPR120 stable cell-line was generated in HEK293 cells. GPR120 (Accession number BC101175) is fused to a promiscuous G protein, Ga16. The expression plasmid is transfected into HEK293 cells using Fugene6 following manufacturer's instruction. Stable cell-lines are generated following drug selection.
FLIPR (Fluorimetric Imaging Plate Reader, Molecular Devices) assays are performed to measure agonist-induced calcium mobilization in the GPR120-expressing cells. One day before the FLIPR assay, HEK293-GPR120-Ga16 cells are seeded into poly-D-lysine coated black-wall-clear bottom 384 well plates (Falcon) at 25,000 cells per well in 40 μl DMEM supplemented with 1% of FBS. The cells are incubated overnight at 37° C. in a humidified incubator. The medium is aspirated on the day of the FLIPR assay. The cells are incubated with 50 μl/well of the assay buffer (HBSS, 20 mM HEPES, 2.5 mM probenecid, pH7.4) containing Fluo-4 NM dye (Invitrogen cat# F36205) at 37° C. for 45 minutes, and then equilibrated at room temperature for 30 minutes. Compounds are dissolved in DMSO and diluted to desired concentrations with assay buffer. Fluorescent output is measured immediately following compound addition (12.5 μl/well) on the FLIPR machine.
An EC50 value was calculated using the change of fluorescent intensity from the reaction initiation. […] In some examples, compounds provided herein have EC50 values from 0.1 μM to 5 μM, while in other examples from 0.5 μM to 5 μM.
The EC50 value in those experiments is given as that concentration of the test compound in question that provoke a response halfway between the baseline and maximum responses. In certain examples compounds of Formula (I) have EC50 values from 0.001 μM to 5 μM. In other examples, compounds of Formula (I) have EC50 values from 0.001 μM to 4 μM. In other examples, compounds of Formula (I) have EC50 values from 0.001 μM to 3 μM. In other examples, compounds of Formula (I) have EC50 values from 0.001 μM to 2 μM. In other examples, compounds of Formula (I) have EC50 values from 0.001 μM to 1 μM. In other examples, compounds of Formula (I) have EC50 values from 0.001 μM to 0.5 μM. […] In other examples, compounds of Formula (I) have EC50 values from 0.001 μM to 0.1 μM.
The % efficiency in those experiments is given as that % enhancement of the test compound in question relative to a known compound. In certain examples compounds of Formula (I) have a % efficiency values from 50% to 150%. In other examples, compounds of Formula (I) have a % efficiency values from 55% to 150%. In other examples, compounds of Formula (I) have a % efficiency values from 60% to 150%. In other examples, compounds of Formula (I) have a % efficiency values from 65% to 150%. In other examples, compounds of Formula (I) have a % efficiency values from 70% to 150%. In other examples, compounds of Formula (I) have a % efficiency values from 75% to 150%. In other examples, compounds of Formula (I) have a % efficiency values from 80% to 150%. In other examples, compounds of Formula (I) have a % efficiency values from 85% to 150%. In other examples, compounds of Formula (I) have a % efficiency values from 90% to 150%. In other examples, compounds of Formula (I) have a % efficiency values from 95% to 150%. In other examples, compounds of Formula (I) have a % efficiency values from 100% to 150%.
Background: Calcium flux is commonly read through the fluorescence of an indicator in the cells.

Where two headings read alike, the source gives them in different places.

As usually defined, the EC50 is the concentration giving half of the maximal effect. On to `CC(C)c1ccc(-n2cc(-c3cccc(C(=O)O)c3)nn2)cc1` [Compound 64, 3-(1-(4-isopropylphenyl)-1H-1,2,3-triazol-4-yl)benzoic acid], for which the Emax was determined as 69%. In addition, the EC50 (read-out: EC50) was determined as 878 nM. For the setting “read-out: EC50 Range”, the EC50 lay within 500 to 1000 nM.

As to `CCn1c(-c2cc(Br)ccc2O)cs/c1=N\c1ccc(C(=O)O)cc1` [Compound 50, (Z)-4-(4-(5-bromo-2-hydroxyphenyl)-3-ethylthiazol-2(3H)-ylideneamino)benzoic acid], under “read-out: EC50 Range”, the EC50 fell in the range of 100 to 250 nM.

As for `CCc1ccc(-c2cn(-c3ccc(F)c(C(=O)O)c3)nn2)cc1` [Compound 69, 5-(4-(4-ethylphenyl)-1H-1,2,3-triazol-1-yl)-2-fluorobenzoic acid], the EC50 (read-out: EC50 Range) lay within 1000 to 5000 nM.

As for `COc1ccc(-c2nc(-c3cccc(C(=O)O)c3)no2)cc1` [Compound 56, 3-(5-(4-methoxyphenyl)-1,2,4-oxadiazol-3-yl)-benzoic acid], the Emax is 60.4%. In addition, the EC50 (read-out: EC50) was determined as 290 nM. Besides, for the setting “read-out: EC50 Range”, the EC50 was 250 to 500 nM.

Turning to `CCn1c(-c2ccccc2)c(C)s/c1=N\c1ccc(S(=O)(=O)O)cc1` [Compound 3, (Z)-4-(3-ethyl-5-methyl-4-phenylthiazol-2(3H)-ylideneamino)benzenesulfonic acid], the Emax came to 85.6%. For the setting “read-out: EC50”, the EC50 came to 547 nM. Further, the EC50 (read-out: EC50 Range) was in the range of 500 to 1000 nM.

As to `CCn1c(-c2ccc3ccccc3c2)cs/c1=N\c1ccc(C(=O)O)cc1` [Compound 41, (Z)-4-(3-ethyl-4-(naphthalen-2-yl)thiazol-2(3H)-ylideneamino)benzoic acid], the EC50 (read-out: EC50 Range) lay within 250 to 500 nM.

With `CCn1c(-c2cccc(Br)c2)cs/c1=N\c1ccc(C(=O)O)cc1` [Compound 47, (Z)-4-(4-(3-bromophenyl)-3-ethylthiazol-2(3H)-ylideneamino)benzoic acid], the EC50 (read-out: EC50 Range) is 100 to 250 nM.

For the compound `CCc1ccc(-c2cn(-c3cccc(C(=O)O)c3)nn2)cc1` [Compound 61, 3-(4-(4-ethylphenyl)-1H-1,2,3-triazol-1-yl)benzoic acid], the EC50 (read-out: EC50 Range) was 500 to 1000 nM.

Turning to `CCCn1c(-c2ccccc2)cs/c1=N\c1ccc(C(=O)O)cc1` [Compound 16, (Z)-4-(4-phenyl-3-propylthiazol-2(3H)-ylideneamino)benzoic acid], the Emax is 96.9%. Further, where the note is “read-out: EC50”, the EC50 is 479 nM. In addition, the concentration for a half-maximal effect (EC50) (read-out: EC50 Range) lay in the range of 250 to 500 nM.

Turning to `CCn1c(-c2cccc(Cl)c2)cs/c1=N\c1ccc(S(=O)(=O)O)cc1` [Compound 31, (Z)-4-(4-(3-chlorophenyl)-3-ethylthiazol-2(3H)-ylideneamino)benzenesulfonic acid], the Emax was found to be 114%. Besides, where the note is “read-out: EC50”, the EC50 is 78 nM. For the same compound, the EC50 (read-out: EC50 Range) fell in the range of 1 to 100 nM.

On to `CCn1c(-c2ccccc2)cs/c1=N\c1ccc(C(=O)O)cc1` [Compound 36, (Z)-4-(3-ethyl-4-phenylthiazol-2(3H)-ylideneamino)benzoic acid], for which the EC50 (read-out: EC50 Range) was in the range of 250 to 500 nM.

Take `CCn1c(-c2cccc(O)c2)cs/c1=N\c1ccc(C(=O)O)cc1` [Compound 18, (Z)-4-(3-ethyl-4-(3-hydroxyphenyl)thiazol-2(3H)-ylideneamino)benzoic acid]: the EC50 (read-out: EC50 Range) lay in the range of 250 to 500 nM.

Take `COc1ccc(-n2cc(-c3cccc(C(=O)O)c3)nn2)cc1` [Compound 54, 3-(1-(4-methoxyphenyl)-1H-1,2,3-triazol-4-yl)benzoic acid]: the Emax turned out to be 68.9%. The EC50 (read-out: EC50) stood at 1400 nM. Also, the EC50 (read-out: EC50 Range) was in the range of 1000 to 5000 nM.

Consider `CCn1c(-c2ccccc2)cs/c1=N\c1ccc(C(=O)O)c(F)c1F` [Compound 10, (Z)-4-(3-ethyl-4-phenylthiazol-2(3H)-ylideneamino)-2,3-difluorobenzoic acid], for which the Emax came to 86.2%. Further, the EC50 (read-out: EC50) is 485 nM. The EC50 (read-out: EC50 Range) fell in the range of 250 to 500 nM.

Regarding `CCn1c(-c2cccc(OC(F)(F)F)c2)cs/c1=N\c1ccc(C(=O)O)cc1` [Compound 13, (Z)-4-(3-ethyl-4-(3-(trifluoromethoxy)phenyl)thiazol-2(3H)-ylideneamino)benzoic acid], the EC50 (read-out: EC50 Range) lay within 500 to 1000 nM.

`O=C(O)c1ccc(/N=c2\scc(-c3ccccc3)n2CC(F)F)cc1` [Compound 23, (Z)-4-(3-(2,2-difluoroethyl)-4-phenylthiazol-2(3H)-ylideneamino)benzoic acid]: the EC50 (read-out: EC50 Range) was 100 to 250 nM.

Turning to `CCn1c(-c2cc(O)ccc2Br)cs/c1=N\c1ccc(C(=O)O)cc1` [Compound 19, (Z)-4-(4-(2-bromo-5-hydroxyphenyl)-3-ethylthiazol-2(3H)-ylideneamino)benzoic acid], the Emax was determined as 81.1%. Besides, the EC50 (read-out: EC50) is 628 nM. Under “read-out: EC50 Range”, the EC50 fell in the range of 500 to 1000 nM.

Take `CCn1c(-c2c(Cl)cccc2Cl)cs/c1=N\c1ccc(C(=O)O)cc1` [Compound 38, (Z)-4-(4-(2,6-dichlorophenyl)-3-ethylthiazol-2(3H)-ylideneamino)benzoic acid]: the EC50 (read-out: EC50 Range) fell in the range of 100 to 250 nM.

As to `CCn1c(-c2cccc(OC)c2)cs/c1=N\c1ccc(C(=O)O)cc1` [Compound 33, (Z)-4-(3-ethyl-4-(3-methoxyphenyl)thiazol-2(3H)-ylideneamino)benzoic acid], the concentration for a half-maximal effect (EC50) (read-out: EC50 Range) lay in the range of 500 to 1000 nM.
